Experimental data from patent US20100041691A1, “PHARMACEUTICAL COMPOSITIONS COMPRISING COMBINATIONS OF AN AMPA/KAINATE ANTAGONISTIC COMPOUND AND AN INHIBITOR OF A MULTIDRUG RESISTANCE PROTEIN” (NeuroSearch A/S, priority 2006, published 2010).
Where two headings read alike, the source gives them in different places.

Legend:
[1] = test system: P-gp; settings: inhibition of P-gp in phenytoin-treated chronic epileptic rats; cited from earlier work
[2] = test system: tonic seizures induced by 26 mA corneal stimulation; settings: Compound A i.v. 60 minutes before electroshock, female NMRI mice
Text: After administration of vehicle or test substance female NMRI mice were stimulated with 26 mA for 0.3 seconds, using corneal stimulation (Rodent Shocker, Hugo Sachs Electronic, Germany). In presence of tonic seizure the mice was labeled 0% protection and if no tonic seizure was detected the mice was labeled 100% protection. Results were plotted as a function of logarithmic dose and fitted to a sigmoid-dose response (with variable slope (GraphPad Prism, ver. 4) and used to estimate the dose that would give a 50% protection from seizures (N=6/group).
Vehicle (5% chremophor) was dosed p.o.

[3] = 10 mg/kg i.v. with Verapamil I.C.V. versus Compound A only; mice; 5-60 minutes
Experimental: 16 NMRI-mice were allocated into 4 groups. The animals were anesthetised in 1.5% Isuflurane and 20% O2. […] At different time point (5 minutes, 15 minutes, 30 minutes and 60 minutes) after dosing the animals were killed by decapitation and blood and brain were collected. The EDTA stabilised blood was centrifugation at 4000 rpm for 20 minutes at 4° C. Plasma and brain samples were stored at −20° C. pending analysis.
Plasma and brain samples were analysed using LC-MS/MS (Quattro Ultimo Platinum with Acquility solvent and sample manager, Waters) in positive electrospray 10 ionisation and multiple reaction monitoring mode. The analytical column was a UPLC Acquility BEH C18 (1.7 μm) 1.0×50 mm (Waters) with gradient elution at a 0.13 ml/min flow rate. The initial mobile phase was 20% methanol/80% formic acid changed to 90% methanol/10% formic acid over a time period of 1.7 min.
Samples were centrifuged for 25 minutes at 5° C., 14000 rpm and 3 μl of the supernatants were injected onto the LC-column.
Brain tissue (0.1 g) was weighed out on top of a tube containing 0.8 ml bead (1.0 mm Zirconia from BioSpec Products). […]
Samples were quantified based on standard curves (linear, 1/×weighting), prepared in plasma and brain tissue respectively.

Compound | seizure control [1] | ED50, protection against tonic seizures ([2]; pretreatment with Tariquidar 24 mg/kg p.o. 120 minutes before) [mg/kg] | ED50, protection against tonic seizures ([2]; with vehicle (5% chremophor p.o.)) [mg/kg] | brain exposure of Compound A [3]
COc1cc2c(cc1OC)CN(CCc1ccc(NC(=O)c3cc(OC)c(OC)cc3NC(=O)c3cnc4ccccc4c3)cc1)CC2 [Tariquidar] | improves seizure control | – | – | –
CN1CCc2c(-c3ccc(S(=O)(=O)N(C)C)cc3)cc3c(c2C1)NC(=O)C3=NOC(CCO)C(=O)O (stereo not shown) [Compound A, 8-Methyl-5-(4-(N,N-dimethyl-sulfamoyl)phenyl)-6,7,8,9-tetrahydro-1H-pyrrolo[3,2h]-isoqinoline-2,3-dione-3-O-(4-hydroxybutyric acid-2-yl)oxime] | – | 24 | 31.5 | increase in brain exposure
